Source: paper PMC3601065 (PLoS ONE, 2013)
Where no end group is shown, it is not given here.

What was measured:
[1] = target: HLA-A*0201 (Homo sapiens, UniProt P04439, D140Y/D185E/D98H/E176V/E277Q/G131W/G231S/I119V/I121R/I166T/I218V/L300P/L318F/N151K/N90K/P208A/P217A/Q86G/Q94H/R138H/R169H/T345S); experiment: biochemical; assay type: binding
[2] = test system: T2 target cells

Sequence: ILDAHSLYL [IL9]
- IC50 [1]: 1.3 nM
- cytotoxicity of peptide-specific CD8^+ T cells [2]: highly cytotoxic

Sequence: VLSEWLPVT [VT9]
- IC50 [1]: 15 nM
- cytotoxicity of peptide-specific CD8^+ T cells [2]: highly cytotoxic
